Type in all cases: cell-based
The subject of one assay is Bacillus cereus. Nature of the assay: Agar plate disc-diffusion, antibacterial, Bacillus cereus. Particulars: nutrient agar, 37° C., 48 hours, DMSO zone subtracted. Here is the method:
(§1) The agar plate disc-diffusion method was applied. […] The discs were then placed onto the surface of agar plates (nutrient agar for bacteria and Sabouraud's dextrose agar for fungi) seeded with the test organism. Each plate contained 15 mL of the agar medium, previously seeded with 0.2 mL of the broth culture of each organism pregrown for 18 hours. The plates were incubated at 37° C. for 48 hours, and 72 hours for fungi. The inhibition zones was measured in mm. Discs impregnated with DMSO were used as a control, and its inhibition zone was subtracted from the tested compound actual inhibition zone.
Background: A growth-free zone around the sample is the usual read-out of agar diffusion tests.

Another assay concerns Staphylococcus aureus. Nature of the assay: Agar plate disc-diffusion, antibacterial, Staphylococcus aureus. Particulars: nutrient agar, 37° C., 48 hours, DMSO zone subtracted. How it is done:
as §1

In another assay the test system is Pseudomonas aeruginosa. Nature of the assay: Agar plate disc-diffusion, antibacterial, Pseudomonas aeruginosa. Particulars: nutrient agar, 37° C., 48 hours, DMSO zone subtracted. Here is the method:
as §1

The next assay relates to Escherichia coli. Nature of the assay: Agar plate disc-diffusion, antibacterial, Escherichia coli. Particulars: nutrient agar, 37° C., 48 hours, DMSO zone subtracted. Here is the method:
as §1

In the next assay the test system is Aspergillus flavus. Nature of the assay: Agar plate disc-diffusion, antifungal, Aspergillus flavus. Particulars: Sabouraud's dextrose agar, 37° C., 72 hours, DMSO zone subtracted. Here is the method: as §1
In assay [1] the test system is Chrysosporium keratinophilum. Nature of the assay: Agar plate disc-diffusion, antifungal, Chrysosporium keratinophilum. Particulars: Sabouraud's dextrose agar, 37° C., 72 hours, DMSO zone subtracted. How it is done: as §1
Setting [2] is: A = concentration of comp. = 10,000 μL.
Setting [3] is: B = concentration of comp. = 30,000 μL.
Where [4] appears, read: C = concentration of comp. = 50,000 μL.

For `N/C(=N\OC(=O)CSc1nnc(-c2ccccc2)o1)c1ccc(Cl)cc1` [Compound 3, 4-chloro-N′-(2-(5-phenyl-1,3,4-oxadiazol-2-ylthio)acetoxy)benzimidamide], in the assay on Bacillus cereus (setting [2]), the “inhibition zone, Bacillus Cereus, A” value was 26 mm. Moreover, the “inhibition zone, Bacillus Cereus, B” value with Bacillus cereus (setting [3]) was 29 mm. Also, in the assay on Bacillus cereus (setting [4]), the “inhibition zone, Bacillus Cereus, C” value was determined as 39 mm. Moreover, in the assay with Staphylococcus aureus (setting [2]), the “inhibition zone, Staphylococcus aureus, A” value is recorded as 25 mm. Further, the “inhibition zone, Staphylococcus aureus, B” value in the assay with Staphylococcus aureus (setting [3]) was 27 mm. Besides, the “inhibition zone, Staphylococcus aureus, C” value in the assay with Staphylococcus aureus (setting [4]) came out at 39 mm. In addition, in the assay on Pseudomonas aeruginosa (A =), the “inhibition zone, Pseudomonas aeruginosa, A” value was 20 mm. In the assay on Pseudomonas aeruginosa (setting [3]), the “inhibition zone, Pseudomonas aeruginosa, B” value was determined as 26 mm. In addition, the “inhibition zone, Pseudomonas aeruginosa, C” value with Pseudomonas aeruginosa (setting [4]) is reported as 40 mm. In addition, the “inhibition zone, Escherichia coli, A” value in the assay with Escherichia coli (A =) is 28 mm. In addition, the “inhibition zone, Escherichia coli, B” value in the assay on Escherichia coli (setting [3]) came out at 36 mm. The “inhibition zone, Escherichia coli, C” value in the assay with Escherichia coli (setting [4]) stood at 53 mm. Moreover, in the assay with Aspergillus flavus (setting [2]), the “inhibition zone, Aspergillus flavus, A” value was determined as 23 mm. In addition, in the assay on Aspergillus flavus (setting [3]), the “inhibition zone, Aspergillus flavus, B” value is given as 27 mm. Also, the “inhibition zone, Aspergillus flavus, C” value with Aspergillus flavus (setting [4]) is listed as 39 mm. Also, the “inhibition zone, Chrysosporium keratinophilum, A” value in assay [1] (setting [2]) was determined as 35 mm. In addition, the “inhibition zone, Chrysosporium keratinophilum, B” value in assay [1] (setting [3]) is reported as 26 mm. For the same compound, the “inhibition zone, Chrysosporium keratinophilum, C” value in assay [1] (setting [4]) is recorded as 42 mm.

The values above are taken from patent US12090143B1, “4-chloro-N′-(2-(5-phenyl-1,3,4-oxadiazol-2-ylthio)acetoxy)benzimidamide as an antimicrobial compound” (KING FAISAL UNIVERSITY, priority 2023, dated 2024).
